In patent US4537717A:
≈ marks a conversion by molar mass, not a printed value.

Assays:
Staphylococcus aureus = assay: in vivo activity against experimental bacterial infection (ED50); details: mice; two doses subcutaneously; dose protecting fifty percent of test animals
[1] = system: Streptococcus pyogenes C203; type: cell-based; details: agar dilution; 2, 5, 17, 22 median of three tests; paired values two experiments
[2] = system: Bacillus subtilis ATCC 6633; assay: agar-plate disc-diffusion test; details: 7 mm disc, 24-48 hours at 25-37° C.; for Size of Zone of Inhibition (mm) B. subtilis ATCC 6633, grown on minimal nutrient agar: 1 mg/ml; for Size of Zone of Inhibition (mm) Bacillus subtilis ATCC 6633: suspended in water at 1 mg/ml
Experimental: ^a Compounds were suspended in water at a concentration of 1 mg/ml; a
7 mm disc was dipped into the suspension and then placed on the agar
surface; incubation: 24-48 hours at 25-37° C.
^b Grown on minimal nutrient agar

[3] = system: Staphylococcus aureus X1.1; type: cell-based; details: agar dilution; 2, 5, 17, 22 median of three tests; paired values two experiments
Streptococcus pyogenes = assay: in vivo activity against experimental bacterial infection (ED50); details: mice, dose protecting fifty percent of test animals; for ED50 Streptococcus pyogenes Oral: two doses orally; for ED50 Streptococcus pyogenes Subcutaneous: two doses subcutaneously
toxicity test (LD50) = details: mouse, in vivo, iv, mice; administered intravenously
[4] = system: Micrococcus luteus ATCC 9341; assay: agar-plate disc-diffusion test; type: cell-based; details: suspended in water at 1 mg/ml; 7 mm disc; 24-48 hours at 25-37° C.
[5] = system: Staphylococcus epidermidis EPI1; type: cell-based; details: agar dilution; 2, 5, 17, 22 median of three tests; paired values two experiments
[6] = system: Staphylococcus aureus V41; type: cell-based; details: penicillin-resistant strain; agar dilution; 2, 5, 17, 22 median of three tests; paired values two experiments
[7] = system: Staphylococcus epidermidis EPI2; type: cell-based; details: agar dilution; 2, 5, 17, 22 median of three tests; paired values two experiments
[8] = system: Staphylococcus aureus ATCC 6738P; assay: agar-plate disc-diffusion test; type: cell-based; details: suspended in water at 1 mg/ml; 7 mm disc; 24-48 hours at 25-37° C.
Streptococcus Group 9960 = type: cell-based, Streptococcus pneumoniae; details: agar dilution; 2, 5, 17, 22 median of three tests; paired values two experiments
[9] = system: Streptococcus pneumoniae Park I; type: cell-based; details: agar dilution; 2, 5, 17, 22 median of three tests; paired values two experiments
[10] = system: Streptococcus pneumoniae Group D X66; type: cell-based; details: agar dilution; 2, 5, 17, 22 median of three tests; paired values two experiments
[11] = system: Staphylococcus aureus X400; type: cell-based; details: methicillin-resistant strain; agar dilution; 2, 5, 17, 22 median of three tests; paired values two experiments

Row | SMILES | ED50 Staphylococcus aureus Subcutaneous (Staphylococcus aureus) [mg/kg × 2] | MIC Streptococcus pyogenes C203 [1] [µg/mL] | Size of Zone of Inhibition (mm) B. subtilis ATCC 6633, grown on minimal nutrient agar [2] [mm] | Size of Zone of Inhibition (mm) Bacillus subtilis ATCC 6633 [2] [mm] | MIC Staphylococcus aureus X1.1 [3] [µg/mL] | ED50 Streptococcus pyogenes Oral (Streptococcus pyogenes) [mg/kg × 2] | ED50 Streptococcus pyogenes Subcutaneous (Streptococcus pyogenes) [mg/kg × 2] | LD50 (toxicity test (LD50)) [mg/kg] | Size of Zone of Inhibition (mm) Micrococcus luteus ATCC 9341 [4] [mm] | MIC Staphylococcus epidermidis EPI1 [5] [µg/mL] | MIC Staphylococcus aureus V41 [6] [µg/mL] | MIC Staphylococcus epidermidis EPI2 [7] [µg/mL] | Size of Zone of Inhibition (mm) Staphylococcus aureus ATCC 6738P [8] [mm] | MIC Streptococcus pneumoniae Group 9960 (Streptococcus Group 9960) [µg/mL] | MIC Streptococcus pneumoniae Park I [9] [µg/mL] | MIC Streptococcus pneumoniae Group D X66 [10] [µg/mL] | MIC Staphylococcus aureus X400 [11] [µg/mL]
1 | CCCCC=CCCCCCCCC(=O)N[C@@H](Cc1c[nH]c2ccccc12)C(=O)N[C@@H](CC(N)=O)C(=O)N[C@@H](CC(=O)O)C(=O)N[C@@H]1C(=O)NCC(=O)N[C@@H](CCCN)C(=O)N[C@@H](CC(=O)O)C(=O)N[C@H](C)C(=O)N[C@@H](CC(=O)O)C(=O)NCC(=O)N[C@H](CO)C(=O)N[C@@H]([C@H](C)CC(=O)O)C(=O)N[C@@H](CC(=O)c2ccccc2N)C(=O)O[C@@H]1C [Compound 12] | 3.28 | 0.5 (≈ 0.299 µM) | 30 | 19 | 1 (≈ 0.597 µM) | 75 | 0.134 | 450 | 20 | 2 (≈ 1.19 µM) | 1 (≈ 0.597 µM) | 2 (≈ 1.19 µM) | 22 | 1 (≈ 0.597 µM) | 0.5 (≈ 0.299 µM) | 2 (≈ 1.19 µM) | 2 (≈ 1.19 µM)
2 | CCCCCCCCCCC(=O)NCCC[C@@H]1NC(=O)CNC(=O)[C@@H](NC(=O)[C@H](CC(=O)O)NC(=O)[C@H](CC(N)=O)NC(=O)[C@H](Cc2c[nH]c3ccccc23)NC(=O)CCCCCCCCCC)[C@@H](C)OC(=O)[C@H](CC(=O)c2ccccc2N)NC(=O)[C@H]([C@H](C)CC(=O)O)NC(=O)[C@@H](CO)NC(=O)CNC(=O)[C@H](CC(=O)O)NC(=O)[C@@H](C)NC(=O)[C@H](CC(=O)O)NC1=O [Compound 17] | > 35 | 0.25 (≈ 0.139 µM) | 20 | 13 | 1 (≈ 0.555 µM) | > 200 | 2.85 | 94 | 14 | 8 (≈ 4.44 µM) | 4 (≈ 2.22 µM) | 8 (≈ 4.44 µM) | 17 | 8 (≈ 4.44 µM) | 0.125 (≈ 0.0693 µM) | 8 (≈ 4.44 µM) | 4 (≈ 2.22 µM)
3 | CCCCCCCCCCCCC(=O)N[C@@H](Cc1c[nH]c2ccccc12)C(=O)N[C@@H](CC(N)=O)C(=O)N[C@@H](CC(=O)O)C(=O)N[C@@H]1C(=O)NCC(=O)N[C@@H](CCCN)C(=O)N[C@@H](CC(=O)O)C(=O)N[C@H](C)C(=O)N[C@@H](CC(=O)O)C(=O)NCC(=O)N[C@H](CO)C(=O)N[C@@H]([C@H](C)CC(=O)O)C(=O)N[C@@H](CC(=O)c2ccccc2N)C(=O)O[C@@H]1C [Compound 7] | 0.54 | 0.25 (≈ 0.15 µM) | 29 | 17 | 0.125 (≈ 0.0752 µM) | 45 | 0.046 | 112 | 19 | 0.5 (≈ 0.301 µM) | 0.125 (≈ 0.0752 µM) | 0.5 (≈ 0.301 µM) | 21 | 32 (≈ 19.2 µM) | 0.25 (≈ 0.15 µM) | 0.03 (≈ 0.018 µM) | 0.5 (≈ 0.301 µM)
